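Cultured in 96-well plates, cells were exposed to test compound for 48 hours across five concentrations. GI50 marks 50% less growth.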 Activity calls are given as the source filed them. Cut-off read from the data, not from the text of the source: active = GI50 up to about 1.1 µM and inactive = higher.

Here are results for five compounds from ChEMBL document CHEMBL1201862, “PubChem BioAssay data set” (2004).

Some test systems named below: 786-0; BT-549; CAKI-1; EKVX; HCT-15; HOP-92; HT-29; IGROV-1; KM12; MDA-MB-435; NCI-H460; NCI-H522; OVCAR-4; RPMI-8226; RXF 393; SF-539; T47D; TK-10; MCF7; SK-MEL-2.
Assay in all cases: NCI tumour cell line growth inhibition, 48 h

As for `O=C(O)[C@H]1[C@@H](C2CCCCC2)O[C@@H](C2CCCCC2)O[C@H]1C(F)(F)F`, the GI50 was 17.8 µM (inactive) in the assay on 786-0; 33.2 µM (inactive) with BT-549; 20.5 µM (inactive) in the assay on CAKI-1; 21.4 µM (inactive) with EKVX; 30.1 µM with HCT-15; 18.8 µM (inactive) with HOP-92. Further, the GI50 was 22.6 µM (inactive) with HT-29; 16.6 µM (inactive) in the assay on IGROV-1; 22.2 µM (inactive) with KM12; 19.4 µM (inactive) in the assay on MDA-MB-435; 19.3 µM (inactive) in the assay on NCI-H460; 52.2 µM (inactive) with NCI-H522. Also, the GI50 in the assay with OVCAR-4 is 36.2 µM (inactive); in the assay with RPMI-8226, 23.9 µM (inactive); in the assay with RXF 393, 22.9 µM (inactive); in the assay on SF-539, 35.7 µM (inactive); in the assay on T47D it was 30.5 µM (inactive); in the assay on TK-10, 60.1 µM (inactive).
Take `COc1ccc(OC)c(-c2nc(O)c3ccccc3n2)c1`: the GI50 in the assay with 786-0 was > 100 µM (inactive); with BT-549, > 100 µM (inactive); in the assay with CAKI-1, > 100 µM (inactive); in the assay on EKVX it was > 100 µM (inactive); in the assay with HCT-15, more than 100 µM; in the assay with HT-29, > 100 µM (inactive). In addition, the GI50 in the assay with IGROV-1 was > 100 µM (inactive); with KM12, 42.4 µM (inactive); with MCF7 it was > 100 µM (inactive); with MDA-MB-435, > 100 µM (inactive); with NCI-H460, > 100 µM (inactive); in the assay on OVCAR-4, > 100 µM (inactive). Moreover, the GI50 with RPMI-8226 was 78.3 µM (inactive); with RXF 393 it was 15 µM (inactive); with SF-539 it was 50.7 µM (inactive); with SK-MEL-2 it was > 100 µM (inactive); in the assay on T47D it was 25.6 µM (inactive).
For `O=C(O)c1c(-c2ccccc2)c(=O)[nH]c2ccccc12`, the GI50 was > 100 µM (inactive) in the assay on 786-0; > 100 µM (inactive) in the assay on BT-549; > 100 µM (inactive) with EKVX; more than 100 µM in the assay on HCT-15; > 100 µM (inactive) with HT-29; > 100 µM (inactive) in the assay with IGROV-1. In addition, the GI50 in the assay with KM12, in the assay on MCF7, in the assay on MDA-MB-435, with NCI-H460, in the assay with NCI-H522 and in the assay on OVCAR-4 was > 100 µM (inactive) throughout. For the same compound, the GI50 with RPMI-8226, in the assay on RXF 393, in the assay with SK-MEL-2, with T47D and in the assay with TK-10 was > 100 µM (inactive) in each case.
Take `CC(C)(C)[Si](C)(C)OCCC1CC2(S(=O)(=O)C3=CC=C=C=C3)ON1CC2S(=O)(=O)c1ccccc1` (stereo not given): the GI50 in the assay on 786-0, in the assay on BT-549, in the assay with EKVX, with HT-29, in the assay with IGROV-1 and in the assay with KM12 was > 10 µM (inactive) each time. Also, the GI50 with MCF7, in the assay on MDA-MB-435, with NCI-H460, in the assay on OVCAR-4, in the assay on RPMI-8226 and in the assay with RXF 393 was > 10 µM (inactive) each time. The GI50 in the assay on SF-539, with SK-MEL-2, with T47D and in the assay with TK-10 was > 10 µM (inactive) each time.
As for `CCOC(=O)N(c1ccccc1)c1cc(=O)n2ccccc2n1`, the GI50 in the assay with 786-0 is > 100 µM (inactive); in the assay with BT-549, > 100 µM (inactive); in the assay on CAKI-1, > 100 µM (inactive); in the assay on EKVX, > 100 µM (inactive); in the assay with HCT-15, more than 100 µM; in the assay with HT-29 it was > 100 µM (inactive). The GI50 with IGROV-1, in the assay with KM12, in the assay with MCF7, with MDA-MB-435, in the assay on NCI-H460 and with OVCAR-4 was > 100 µM (inactive) throughout. Further, the GI50 is > 100 µM (inactive) in the assay on RPMI-8226; 38.9 µM (inactive) in the assay with RXF 393; > 100 µM (inactive) in the assay with SF-539; > 100 µM (inactive) with T47D; > 100 µM (inactive) in the assay with TK-10.
